# Patent publication US9029325B2, “Amylin analogues and pharmaceutical compositions thereof” (Novo Nordisk A/S, priority 2011, dated 2015)
# Where two headings read alike, the source gives them in different places. Starred links: 1 amine or outer side, 2 acyl side, 3 side chain; linkers in the order of their positions; H or OH if unused. Positions of bridges follow the written chain, without caps; N, C: chain ends. Residues, ends and D or L forms follow the SMILES beside them. Groups on a side chain read outwards from the residue. *: point of attachment. C20 diacid = O=C(O)CCCCCCCCCCCCCCCCCCC(=O)*; γGlu = O=C(O)[C@H](CCC(=O)[*:2])N[*:1]
# Columns and labels:
# [1] = molecular target: T1, rat calcitonin (a) receptor (Rattus norvegicus, UniProt P32214); test: Assay (II)b functional rat calcitonin receptor cAMP FlashPlate assay; type: cell-based; conditions: Table 11; read-out: CTa receptor rat EC50
# T1 construct: expressed in transfected cells; host or cells: BHK tk'ts 13 (transient, FuGENE 6)
# T1 sequence (P32214 25-479 isoform P32214-2 limits assumed): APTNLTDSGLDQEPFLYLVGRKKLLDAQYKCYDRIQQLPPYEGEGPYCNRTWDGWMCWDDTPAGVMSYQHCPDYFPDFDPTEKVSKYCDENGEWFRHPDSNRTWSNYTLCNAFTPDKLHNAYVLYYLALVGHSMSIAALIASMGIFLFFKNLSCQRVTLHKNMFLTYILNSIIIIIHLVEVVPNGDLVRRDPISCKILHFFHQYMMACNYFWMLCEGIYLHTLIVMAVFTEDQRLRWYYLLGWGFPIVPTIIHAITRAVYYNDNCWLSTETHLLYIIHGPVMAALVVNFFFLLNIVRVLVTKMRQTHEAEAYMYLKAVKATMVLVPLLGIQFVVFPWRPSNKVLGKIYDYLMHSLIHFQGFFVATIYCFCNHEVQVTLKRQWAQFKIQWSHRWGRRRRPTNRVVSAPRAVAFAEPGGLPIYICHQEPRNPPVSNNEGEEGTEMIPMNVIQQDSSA
# Excerpt: (§1) Activation of calcitonin and amylin (coexpression of calcitonin receptor and receptor activity modifying proteins (RAMP)) receptors lead to increased intracellular concentrations of cAMP. In order to quantify the cAMP levels in transiently transfected cells the Adenylyl Cyclase Activation FlashPlate® Assay from Perkin Elmer was used. The basic principle of the FlashPlate® Assay is a competition between radioactive and non-radioactive cAMP generated by the cells for a fixed number of binding sites.
# (§2) BHK tk′ts 13 cells were transiently transfected with either rat calcitonin (a) receptor or amylin 3 (a) receptor (rat calcitonin(a) receptor+ rat RAMP3) using FuGENE® 6 (Roche), according to the manufacturers recommendations.
# (§3) 24 hours after transient transfection the cells (rat calcitonin(a)—or rat amylin 3(a)—receptor cells) were added (100.000 cells/well) to the 96 well FlashPlates® with samples or standard in FlashPlate stimulation buffer with IBMX and incubated for 30 min. Detection mix was created according to manufacturers protocol and scintillation measured after 3 h of incubation on TopCounter™ (Packard).
# [2] = Assay (IV) determination of solubility; type: physicochemical
# Description: The polypeptide was dissolved in water at −500 nmol/ml and mixed 1:1 with a series of buffers (100 mM glycylglycine pH 3.0, 100 mM glycylglycine pH 4.0, 100 mM glycylglycine pH 5.0, 100 mM bistrispropane pH 6.0, 100 mM bistrispropane pH 6.5, 100 mM bistrispropane pH 7.0, 100 mM bistrispropane pH 7.5, 100 mM bistrispropane pH 8.0). After 18 hours at room temperature the samples were centrifuged and the polypeptide concentration determined by UPLC.
# [3] = molecular target: T2, human amylin receptor (amylin 3(a) receptor: human calcitonin receptor + RAMP-3) (Homo sapiens, UniProt O60896+P30988); test: Assay (II)a functional human amylin receptor CRE-luciferase assay; type: cell-based; conditions: Table 11
# T2 construct: expressed in transfected cells
# T2 sequence (P30988 25-474): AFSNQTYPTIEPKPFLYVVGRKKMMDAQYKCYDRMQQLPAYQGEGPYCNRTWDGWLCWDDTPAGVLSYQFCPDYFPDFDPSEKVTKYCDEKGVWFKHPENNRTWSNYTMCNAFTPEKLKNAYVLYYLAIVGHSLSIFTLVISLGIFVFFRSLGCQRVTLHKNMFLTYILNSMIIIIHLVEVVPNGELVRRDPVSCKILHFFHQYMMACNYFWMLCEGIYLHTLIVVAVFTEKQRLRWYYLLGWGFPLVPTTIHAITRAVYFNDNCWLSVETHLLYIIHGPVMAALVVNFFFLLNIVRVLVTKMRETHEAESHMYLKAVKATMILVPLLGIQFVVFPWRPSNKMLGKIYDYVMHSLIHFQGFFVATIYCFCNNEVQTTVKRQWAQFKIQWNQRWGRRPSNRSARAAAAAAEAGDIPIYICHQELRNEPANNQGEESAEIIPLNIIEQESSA
# T2 sequence (O60896 24-148 partner): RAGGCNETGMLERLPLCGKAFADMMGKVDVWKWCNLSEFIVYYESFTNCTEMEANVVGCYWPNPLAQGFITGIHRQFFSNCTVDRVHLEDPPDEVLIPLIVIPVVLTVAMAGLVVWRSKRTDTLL
# Excerpt: (§4) Activation of calcitonin and amylin (coexpression of calcitonin receptor and receptor activity modifying proteins (RAMP)) receptors lead to increased intracellular concentrations of cAMP. Consequently, transcription is activated by promoters containing multiple copies of the cAMP response element (CRE). It is thus possible to measure amylin activity by the use of a CRE luciferase reporter gene introduced into BHK cells also expressing calcitonin or amylin receptors.
# (§5) A BHK570 cell line was stably transfected with the human calcitonin receptor and a CRE-responsive luciferase reporter gene. The cell line was further transfected with RAMP-3, using standard methods. This turns the calcitonin receptor into an amylin 3(a) receptor. Methotrexate, Neomycin, and Hygromycin are selection markers for luciferase, the calcitonin receptor, and RAMP-3, respectively.
# (§6) To perform activity assays, BHK calcitonin (a) receptor- or amylin 3(a)-receptor/CRE-luc cells were seeded in white 96 well culture plates at a density of about 20.000 cells/well. […] After incubation overnight at 37° C. and 5% CO2, the growth medium was replaced by 50 μl/well assay medium (DMEM (without phenol red), Glutamax™, 10% FBS, and 10 mM Hepes, pH 7.4). Further, 50 μl/well of standard or sample in assay buffer were added. […] Finally, luminescence was measured on a TopCounter (Packard) in SPC (single photon counting) mode.
# [4] = molecular target: T3, rat amylin 3(a) receptor (rat calcitonin(a) receptor + rat RAMP3) (Rattus norvegicus, UniProt P32214+Q9JJ73); test: Assay (II)b functional rat amylin receptor cAMP FlashPlate assay; type: cell-based; conditions: Table 11
# T3 construct: expressed in transfected cells; host or cells: BHK tk'ts 13 (transient, FuGENE 6)
# T3 sequence (P32214 25-479 isoform P32214-2 limits assumed): T1 sequence (P32214 25-479 isoform P32214-2 limits assumed)
# T3 sequence (Q9JJ73 23-147 partner): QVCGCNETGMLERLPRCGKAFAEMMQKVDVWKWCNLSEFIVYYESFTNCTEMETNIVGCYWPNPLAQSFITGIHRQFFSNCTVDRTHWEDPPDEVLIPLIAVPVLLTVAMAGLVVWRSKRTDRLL
# Excerpt: as §1, §2, §3
# [5] = molecular target: T4, human calcitonin receptor (CTa receptor) (Homo sapiens, UniProt P30988); test: Assay (II)a functional human calcitonin receptor CRE-luciferase assay; type: cell-based; conditions: Table 11
# T4 construct: expressed in transfected cells
# T4 sequence (P30988 25-474): T2 sequence (P30988 25-474)
# Excerpt: as §4, §5, §6
# [6] = Assay (I) efficacy testing on appetite (food intake), ad libitum fed rat model; type: in vivo, Sprague Dawley (SD) rats; conditions: 3 nmol/kg
# Method in brief: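 Ad libitum fed SD rats (200-250 g) on a reversed light cycle, housed individually, received a single 0.01-3 mg/kg dose ip, po or sc just before lights-off. Individual food intake recorded hourly for 7 h, then at 24 h and sometimes 48 h, versus vehicle; Grubbs outliers excluded.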
structure (smiles),measurement,setting,value
CC[C@H](C)[C@H](NC(=O)[C@@H]1CCCN1C(=O)CNC(=O)[C@H](Cc1ccccc1)NC(=O)[C@H](CC(N)=O)NC(=O)[C@H](CC(N)=O)NC(=O)[C@H](CO)NC(=O)[C@H](CO)NC(=O)[C@H](Cc1c[nH]cn1)NC(=O)[C@H](Cc1c[nH]cn1)NC(=O)[C@H](CC(C)C)NC(=O)[C@H](Cc1ccccc1)NC(=O)[C@H](CCC(=O)O)NC(=O)[C@H](C)NC(=O)[C@H](CC(C)C)NC(=O)[C@H](CCCNC(=N)N)NC(=O)[C@H](CCC(N)=O)NC(=O)[C@@H](NC(=O)[C@H](C)NC(=O)[C@@H]1CSSC[C@H](NC(=O)[C@@H](N)CCCCNC(=O)CC[C@H](NC(=O)CCCCCCCCCCCCCCCCCCC(=O)O)C(=O)O)C(=O)N[C@@H](CC(N)=O)C(=O)N[C@@H]([C@@H](C)O)C(=O)N[C@@H](C)C(=O)N[C@@H]([C@@H](C)O)C(=O)N1)[C@@H](C)O)C(=O)N[C@@H](CC(C)C)C(=O)N1CCC[C@H]1C(=O)N1CCC[C@H]1C(=O)N[C@H](C(=O)N[C@@H](CC(N)=O)C(=O)N[C@H](C(=O)NCC(=O)N[C@@H](CO)C(=O)N[C@@H](Cc1c[nH]cn1)C(=O)N[C@H](C(=O)N[C@@H](Cc1ccc(O)cc1)C(N)=O)[C@@H](C)O)C(C)C)[C@@H](C)O [compound 87] (H-K([γGlu-C20 diacid])CNTATCATQRLAEFLHHSSNNFGPILPPTNVGSHTY-NH2; disulfide 2-7 (inferred); C-terminus assumed),EC50,[1],437 pM
same,solubility at 18 h,"[2]; pH 3.0, read-out: Solubility (μM) pH 3.0",> 200 µM
same,solubility at 18 h,"[2]; pH 4.0, read-out: Solubility (μM) pH 4.0",> 200 µM
same,solubility at 18 h,"[2]; pH 5.0, read-out: Solubility (μM) pH 5.0",> 200 µM
same,solubility at 18 h,"[2]; pH 6.0, read-out: Solubility (μM) pH 6.0",> 200 µM
same,solubility at 18 h,"[2]; pH 6.5, read-out: Solubility (μM) pH 6.5",> 200 µM
same,solubility at 18 h,"[2]; pH 7.0, read-out: Solubility (μM) pH 7.0",> 200 µM
same,solubility at 18 h,"[2]; pH 7.5, read-out: Solubility (μM) pH 7.5",> 200 µM
same,solubility at 18 h,"[2]; pH 8.0, read-out: Solubility (μM) pH 8.0",> 200 µM
same,EC50,[3],142 pM
same,EC50,[4],106 pM
same,EC50,[5],228 pM
same,Food intake reduction 0-24 h 3 nmol/kg (%),[6]; 0-24 h,66%
same,Food intake reduction 24-48 h 3 nmol/kg (%),[6]; 24-48 h,47%
